Patent US20070129415A1, “Method of Treating Isolated Systolic Hypertension” (priority 1997, published 2007)

Tested on: prejunctional AII receptors and sympathetic outflow
Experiment: Spinal cord-stimulated pithed rats: pressor response to stimulation of sympathetic vasomotor outflow
Assay type: in vivo, Sprague-Dawley rats
Settings: pithed rat; for inhibition of the pressor responses mediated by sympathetic nervous system activation (spinal cord stimulation): 0.3 mg/kg, i.v. 10 min before second frequency-response curve, 50 V, 1 msec, 0.3-5.0 Hz
Experimental: Normotensive male Sprague-Dawley rats (300-350 gm) were anesthetized with Brevital (10 mg/kg, i.v.), a tracheostomy was performed and the rats were then pithed by inserting a steel rod (1.5 mm in diameter) through the orbit and foramen magnum into the spinal cord. Immediately after pithing, rats were ventilated artificially with room air using a rodent respirator at a frequency of 60 cycles/min with a volume of 2 ml/100 gm body weight. The pithing rod was insulated except for a 6-cm section distal from the tip. Body temperature was maintained at 37-38° C. by a thermostatic heating pad. Animals were treated with tubocurararine (1 mg/kg, i.v) and atropine (1 mg/kg, i.v.), to prevent muscle movement during spinal cord stimulation and parasympathetic effects, respectively. Systemic arterial blood pressure was measured from the right carotid artery by a Statham P23 pressure transducer and recorded on a Grass polygraph. The left jugular vein was cannulated for i.v. administration of drugs.
Stimulation of sympathetic vasomotor outflow was accomplished by a consecutive train of stimulation (50 V, 1 msec, 0.3-5.0 Hz) which was delivered for 15 sec at each frequency. […] For all the compounds evaluated, this dose provided effective blockade of the pressor response to exogenous AII (100 ng/kg, i.v.). Each rat served as its own control.
AII data are shown as the means±S.E.M. of the number (n) of observations. Statistical significance of the differences between drug-treated animals and vehicle-control animals was tested by a one-way analysis of variance with a P valued of 0.05 accepted as significant.

Compound	inhibition of the pressor responses mediated by sympathetic nervous system activation (spinal cord stimulation)	other results
CCCCc1ncc(/C=C(\Cc2cccs2)C(=O)O)n1Cc1ccc(C(=O)O)cc1 [Eprosartan, (E)-α-[2-n-butyl-1-[(4-carboxyphenyl)methyl]-1H-imidazol-5-yl]methylene-2-thiophenepropionic acid monomethanesulfonate]	significant inhibition	–
CCCCC1=NC2(CCCC2)C(=O)N1Cc1ccc(-c2ccccc2-c2nnn[nH]2)cc1 [irbesartan]	neither losartan, valsartan, or irbesartan produced significant inhibition	–
CCCCc1nc(Cl)c(CO)n1Cc1ccc(-c2ccccc2-c2nn[nH]n2)cc1 [losartan]	neither losartan, valsartan, or irbesartan produced significant inhibition	–
CCCCC(=O)N(Cc1ccc(-c2ccccc2-c2nnn[nH]2)cc1)[C@H](C(=O)O)C(C)C [valsartan]	neither losartan, valsartan, or irbesartan produced significant inhibition	–
Sar^1-Ile^8[AII]	–	inhibition of the increase in pressor response to spinal cord stimulation (continuous infusion 10 ug/kg/min): significantly inhibited
angiotensin II (DRVYIHPF; Angiotensin-2; UniProt P01019 25-32, looked up) [AII, angiotensin II (AII), infused at a sub-pressor dose]	–	shift of the frequency-response curve (pressor response to spinal cord stimulation) (continuous infusion of a sub-pressor dose, 40 ng/kg/min): significant leftward shifts
